Test results as given in ChEMBL document CHEMBL2375215, “Phenylpropiophenone derivatives as potential anticancer agents: synthesis, biological evaluation and quantitative structure-activity relationship study” (Eur J Med Chem, 2013).

Columns and labels:
[1] = (§1) Cytotoxicity against human LS174 cells assessed as decrease in cell survival after 72 hrs by MTT assay; assay type: functional, cell-based; details: LS174, 72 h
LS174 = assay: as §1; assay type: functional, cell-based
PC-3 [2] = assay: Cytotoxicity against human PC3 cells assessed as decrease in cell survival after 72 hrs by MTT assay; assay type: functional, cell-based; details: for IC50: PC-3, 72 h
MCF7 [3] = assay: Cytotoxicity against human MCF7 cells assessed as decrease in cell survival after 72 hrs by MTT assay; assay type: functional, cell-based; details: for IC50: MCF7, 72 h
K562 [4] = assay: Cytotoxicity against human K562 cells assessed as decrease in cell survival after 72 hrs by MTT assay; assay type: functional, cell-based; details: for IC50: K562, 72 h
[5] = (§2) Cytotoxicity against human Fem-X cells assessed as decrease in cell survival after 72 hrs by MTT assay; assay type: functional, cell-based
Fem-X = assay: as §2; assay type: functional, cell-based
HeLa [6] = assay: Cytotoxicity against human HeLa cells assessed as decrease in cell survival after 72 hrs by MTT assay; assay type: functional, cell-based
[7] = Selectivity index, ratio of IC50 for PHA-stimulated human PBMC to IC50 for human LS174 cells
[8] = Selectivity index, ratio of IC50 for human PBMC to IC50 for human LS174 cells
PC-3 [9] = assay: Selectivity index, ratio of IC50 for human PBMC to IC50 for human PC3 cells
PC-3 [10] = assay: Selectivity index, ratio of IC50 for PHA-stimulated human PBMC to IC50 for human PC3 cells
MCF7 [11] = assay: Selectivity index, ratio of IC50 for PHA-stimulated human PBMC to IC50 for human MCF7 cells
MCF7 [12] = assay: Selectivity index, ratio of IC50 for human PBMC to IC50 for human MCF7 cells
K562 [13] = assay: Selectivity index, ratio of IC50 for PHA-stimulated human PBMC to IC50 for human K562 cells
K562 [14] = assay: Selectivity index, ratio of IC50 for human PBMC to IC50 for human K562 cells
[15] = Selectivity index, ratio of IC50 for PHA-stimulated human PBMC to IC50 for human Fem-X cells; assay type: functional
[16] = Selectivity index, ratio of IC50 for human PBMC to IC50 for human Fem-X cells
HeLa [17] = assay: Selectivity index, ratio of IC50 for PHA-stimulated human PBMC to IC50 for human HeLa cells
HeLa [18] = assay: Selectivity index, ratio of IC50 for human PBMC to IC50 for human HeLa cells
PBMC [19] = assay: Cytotoxicity against human PBMC assessed as decrease in cell survival after 72 hrs by MTT assay; assay type: cell-based
PBMC [20] = assay: Cytotoxicity against PHA-stimulated human PBMC assessed as decrease in cell survival after 72 hrs by MTT assay; assay type: cell-based

Row | Structure (SMILES) | IC50 ([1]; read-out: IC50) [µM] | IC50 ([1]; read-out: pIC50 (converted)) [µM] | Activity (LS174) | Activity (PC-3 [2]) | IC50 (PC-3 [2]; read-out: IC50) [µM] | IC50 (PC-3 [2]; read-out: pIC50 (converted)) [µM] | Activity (MCF7 [3]) | IC50 (MCF7 [3]; read-out: IC50) [µM] | IC50 (MCF7 [3]; read-out: pIC50 (converted)) [µM] | Activity (K562 [4]) | IC50 (K562 [4]; read-out: IC50) [µM] | IC50 (K562 [4]; read-out: pIC50 (converted)) [µM] | IC50 ([5]; read-out: IC50) [µM] | IC50 ([5]; read-out: pIC50 (converted)) [µM] | Activity (Fem-X) | Activity (HeLa [6]) | IC50 (HeLa [6]; read-out: IC50) [µM] | IC50 (HeLa [6]; read-out: pIC50 (converted)) [µM] | Ratio IC50 [7] | Ratio IC50 [8] | other results
1 | O=C(/C=C/c1ccc(F)cc1)c1ccccc1O | 35.3 | 35.3 | Dose-dependent effect | Dose-dependent effect | 30.4 | 30.4 | Dose-dependent effect | 26 | 26 | Dose-dependent effect | 17.9 | 17.9 | 21.8 | 21.8 | Dose-dependent effect | Dose-dependent effect | 22.6 | 22.6 |  |  | 
2 | O=C(/C=C/c1ccccc1C(F)(F)F)c1ccccc1O | 26.4 | 26.4 | Dose-dependent effect | Dose-dependent effect | 33.5 | 33.5 | Dose-dependent effect | 16.9 | 16.9 | Dose-dependent effect | 9.2 | 9.2 | 10.2 | 10.2 | Dose-dependent effect | Dose-dependent effect | 18.1 | 18.1 | 1.32 | 1.59 | Ratio IC50 (PC-3 [9]): 1.25; Ratio IC50 (PC-3 [10]): 1.04; Ratio IC50 (MCF7 [11]): 2.07; Ratio IC50 (MCF7 [12]): 2.48; Ratio IC50 (K562 [13]): 3.79; Ratio IC50 (K562 [14]): 4.55; Ratio IC50 [15]: 3.42; Ratio IC50 [16]: 4.1; Ratio IC50 (HeLa [17]): 1.92; Ratio IC50 (HeLa [18]): 2.31; IC50 (PBMC [19]): 41.9 µM; IC50 (PBMC [20]): 25.2 µM
3 | O=C(/C=C/c1ccccc1F)c1ccccc1O | 17.4 | 17.4 | Dose-dependent effect | Dose-dependent effect | 21.6 | 21.6 | Dose-dependent effect | 14.4 | 14.4 | Dose-dependent effect | 4.8 | 4.8 | 8.7 | 8.7 | Dose-dependent effect | Dose-dependent effect | 8.9 | 8.9 | 0.94 | 1.01 | Ratio IC50 (PC-3 [9]): 0.81; Ratio IC50 (PC-3 [10]): 0.76; Ratio IC50 (MCF7 [11]): 1.14; Ratio IC50 (MCF7 [12]): 1.22; Ratio IC50 (K562 [13]): 3.41; Ratio IC50 (K562 [14]): 3.67; Ratio IC50 [15]: 1.88; Ratio IC50 [16]: 2.02; Ratio IC50 (HeLa [17]): 1.84; Ratio IC50 (HeLa [18]): 1.98; IC50 (PBMC [19]): 17.6 µM; IC50 (PBMC [20]): 16.4 µM
4 | Cc1ccccc1/C=C/C(=O)c1ccccc1O | 48.8 | 48.8 | Dose-dependent effect | Dose-dependent effect | 19.2 | 19.2 | Dose-dependent effect | 37.7 | 37.7 | Dose-dependent effect | 18.5 | 18.5 | 22.4 | 22.4 | Dose-dependent effect | Dose-dependent effect | 14.7 | 14.7 |  |  | 
5 | O=C(/C=C/c1ccccc1Cl)c1ccccc1O | 32.2 | 32.2 | Dose-dependent effect | Dose-dependent effect | 20.1 | 20.1 | Dose-dependent effect | 29.8 | 29.8 | Dose-dependent effect | 9.8 | 9.8 | 10.4 | 10.4 | Dose-dependent effect | Dose-dependent effect | 11.2 | 11.2 |  |  | 
6 | Cc1ccc(/C=C/C(=O)c2ccccc2O)cc1 | 41.2 | 41.2 | Dose-dependent effect | Dose-dependent effect | 27.6 | 27.6 | Dose-dependent effect | 33.9 | 33.9 | Dose-dependent effect | 18.9 | 18.9 | 21.2 | 21.2 | Dose-dependent effect | Dose-dependent effect | 20.6 | 20.6 |  |  | 
7 | CCCNCC(O)COc1ccccc1C(=O)CCc1ccccc1F.Cl (racemic) | 72.2 | 72.2 | Dose-dependent effect | Dose-dependent effect | 46.4 | 46.4 | Dose-dependent effect | 18.5 | 18.5 | Dose-dependent effect | 37.6 | 37.6 | 38.2 | 38.2 | Dose-dependent effect | Dose-dependent effect | 16.4 | 16.4 | 0.67 | 0.66 | Ratio IC50 (PC-3 [9]): 1.02; Ratio IC50 (PC-3 [10]): 1.04; Ratio IC50 (MCF7 [11]): 2.6; Ratio IC50 (MCF7 [12]): 2.57; Ratio IC50 (K562 [13]): 1.28; Ratio IC50 (K562 [14]): 1.26; Ratio IC50 [15]: 1.26; Ratio IC50 [16]: 1.24; Ratio IC50 (HeLa [17]): 2.93; Ratio IC50 (HeLa [18]): 2.89; IC50 (PBMC [19]): 47.5 µM; IC50 (PBMC [20]): 48.1 µM
8 | CCCNCC(O)COc1ccccc1C(=O)CCc1ccc(F)cc1.Cl (racemic) | 23.2 | 23.2 | Dose-dependent effect | Dose-dependent effect | 31.9 | 31.9 | Dose-dependent effect | 33 | 33 | Dose-dependent effect | 27.7 | 27.7 | 9.6 | 9.6 | Dose-dependent effect | Dose-dependent effect | 16.1 | 16.1 | 2.1 | 2.6 | Ratio IC50 (PC-3 [9]): 3.35; Ratio IC50 (PC-3 [10]): 1.53; Ratio IC50 (MCF7 [11]): 1.48; Ratio IC50 (MCF7 [12]): 1.83; Ratio IC50 (K562 [13]): 1.76; Ratio IC50 (K562 [14]): 2.18; Ratio IC50 [15]: 5.08; Ratio IC50 [16]: 6.28; Ratio IC50 (HeLa [17]): 3.03; Ratio IC50 (HeLa [18]): 3.75; IC50 (PBMC [19]): 60.3 µM; IC50 (PBMC [20]): 48.8 µM
9 | CCCNCC(O)COc1ccccc1C(=O)CCc1ccccc1C.Cl (racemic) | 20.3 | 20.3 | Dose-dependent effect | Dose-dependent effect | 18 | 18 | Dose-dependent effect | 23.4 | 23.4 | Dose-dependent effect | 8.1 | 8.1 | 6.8 | 6.8 | Dose-dependent effect | Dose-dependent effect | 8.9 | 8.9 | 2.45 | 2.58 | Ratio IC50 (PC-3 [9]): 2.91; Ratio IC50 (PC-3 [10]): 2.77; Ratio IC50 (MCF7 [11]): 2.13; Ratio IC50 (MCF7 [12]): 2.24; Ratio IC50 (K562 [13]): 6.15; Ratio IC50 (K562 [14]): 6.47; Ratio IC50 [15]: 7.32; Ratio IC50 [16]: 7.71; Ratio IC50 (HeLa [17]): 5.6; Ratio IC50 (HeLa [18]): 5.89; IC50 (PBMC [19]): 52.4 µM; IC50 (PBMC [20]): 49.8 µM
10 | CCCNCC(O)COc1ccccc1C(=O)CCc1ccc(C)cc1.Cl (racemic) | 20.8 | 20.8 | Dose-dependent effect | Dose-dependent effect | 24.7 | 24.7 | Dose-dependent effect | 31.7 | 31.7 | Dose-dependent effect | 14.7 | 14.7 | 12.7 | 12.7 | Dose-dependent effect | Dose-dependent effect | 21.7 | 21.7 | 1.99 | 2.34 | Ratio IC50 (PC-3 [9]): 1.97; Ratio IC50 (PC-3 [10]): 1.68; Ratio IC50 (MCF7 [11]): 1.31; Ratio IC50 (MCF7 [12]): 1.54; Ratio IC50 (K562 [13]): 2.82; Ratio IC50 (K562 [14]): 3.31; Ratio IC50 [15]: 3.26; Ratio IC50 [16]: 3.83; Ratio IC50 (HeLa [17]): 1.91; Ratio IC50 (HeLa [18]): 2.24; IC50 (PBMC [19]): 48.7 µM; IC50 (PBMC [20]): 41.4 µM
